One test concerns the target T1, Human PD-L1/PD-1 (Homo sapiens, UniProt Q9NZQ7).
T1 construct: made in house; host or cells: HEK293T
Briefly: HTRF PD-1-Ig/PD-L1-His binding assay (human PD-L1). In outline:
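Ig- and His-fused extracellular PD-1/PD-L1 binding in BSA/Tween-20 dPBS. HTRF with Eu anti-Ig (1 nM final) and APC anti-His (20 nM final).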
On the technique in general: TR-FRET usually uses a lanthanide donor and a delayed reading to cut background.

For test [1], the target named is T2, LK35.2-hPD-L1 cells / PE-labeled PD-1-Ig (Homo sapiens, UniProt Q9NZQ7).
T2 construct: expressed in transfected cells; host or cells: LK35.2 mouse B cell line
T2 sequence (Q9NZQ7 19-290): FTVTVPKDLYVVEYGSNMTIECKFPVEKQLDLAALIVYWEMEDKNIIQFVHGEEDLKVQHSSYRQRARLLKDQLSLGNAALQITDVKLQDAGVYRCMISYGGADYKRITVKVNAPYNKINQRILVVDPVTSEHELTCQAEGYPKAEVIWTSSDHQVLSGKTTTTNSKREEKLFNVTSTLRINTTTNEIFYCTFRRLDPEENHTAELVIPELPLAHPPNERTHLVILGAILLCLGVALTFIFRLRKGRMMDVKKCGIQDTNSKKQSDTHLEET
Nature of the test: LK35.2-hPD-L1 cell binding high-content screening assay. The test is classed as cell-based. A digest of the protocol: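 Mouse LK35.2 B cells stably overexpressing human PD-L1 were cultured overnight in RPMI with 10% FCS, then given compound and PE-labeled human PD-1-Ig (1 nM final) for 1 h at 37 °C. After three dPBS washes, bound fluorescence was quantified by high-content imaging.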

Where [2] appears, read: cluster symbol, read-out: HTRF IC50 cluster.
[3] abbreviates: cell binding assay, cell line not given, cluster symbol, read-out: CBA IC50 cluster.
Setting [4] is: cluster symbol, cell line of CBA not given (LK35.2-hPD-L1 or 293T-hPD-L1), read-out: CBA IC50 cluster.

Read-outs that look alike come from different tables or passages of the source. Positions of bridges follow the written chain, without caps; N, C: chain ends. Non-standard residues stand in square brackets, D forms with d. Residues, ends and D or L forms follow the SMILES beside them. Trp(1-Me) = Cn1cc(C[C@H](N)C(=O)O)c2ccccc21; Bip = N[C@@H](Cc1ccc(-c2ccccc2)cc1)C(=O)O; Ala(2-furyl) = N[C@@H](Cc1ccco1)C(=O)O; Phe(3-Me) = Cc1cccc(C[C@H](N)C(=O)O)c1; Bta = N[C@@H](Cc1csc2ccccc12)C(=O)O; Hyp = O=C(O)[C@@H]1C[C@@H](O)CN1; NMeF = CN[C@@H](Cc1ccccc1)C(=O)O; NMeNle = CCCC[C@H](NC)C(=O)O; NMeA = CN[C@@H](C)C(=O)O; Dab = NCC[C@H](N)C(=O)O; Dap = NC[C@H](N)C(=O)O; Sar = CNCC(=O)O

The IC50 is the concentration that gives 50% inhibition.

T1 sequence (Q9NZQ7 with tags, fused parts or gaps): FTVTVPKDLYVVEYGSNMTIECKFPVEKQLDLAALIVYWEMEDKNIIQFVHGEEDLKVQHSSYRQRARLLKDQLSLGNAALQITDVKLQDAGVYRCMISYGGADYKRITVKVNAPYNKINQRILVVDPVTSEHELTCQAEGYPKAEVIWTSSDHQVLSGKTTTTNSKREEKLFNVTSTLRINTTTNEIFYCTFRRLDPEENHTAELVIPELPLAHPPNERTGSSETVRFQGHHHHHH

In the case of `CCCC[C@H]1C(=O)N(C)[C@@H](CCCC)C(=O)N[C@@H](CCCNC(=N)N)C(=O)N[C@H](C(=O)NCC(N)=O)CSCC(=O)N[C@@H](Cc2cccc(C)c2)C(=O)N(C)[C@@H](C)C(=O)N[C@@H](CC(N)=O)C(=O)N2CCC[C@H]2C(=O)N[C@@H](Cc2cnc[nH]2)C(=O)N[C@@H](CC(C)C)C(=O)N2C[C@H](O)C[C@H]2C(=O)N[C@@H](Cc2c[nH]c3ccccc23)C(=O)N[C@@H](CO)C(=O)N[C@@H](Cc2c[nH]c3ccccc23)C(=O)N1C` [Example 7057] ({CH2CO}-[Phe(3-Me)][NMeA]NPHL[Hyp]WSW[NMeNle][NMeNle]RCG-NH2; thioether N-14), the IC50 lay within 0.385 to 6.74 nM at Human PD-L1/PD-1 (setting [2]) and 4.78 to 72.9 nM in test [1] (setting [3]).

For the compound `CCCC[C@H]1C(=O)N(C)[C@@H](CCCC)C(=O)N[C@@H](CCCNC(=N)N)C(=O)N[C@H](C(=O)NCC(N)=O)CSCC(=O)N[C@@H](Cc2ccco2)C(=O)N(C)[C@@H](C)C(=O)N[C@@H](CC(N)=O)C(=O)N2CCC[C@H]2C(=O)N[C@@H](Cc2cnc[nH]2)C(=O)N[C@@H](CC(C)C)C(=O)N(C)CC(=O)N[C@@H](Cc2c[nH]c3ccccc23)C(=O)N[C@@H](CO)C(=O)N[C@@H](Cc2c[nH]c3ccccc23)C(=O)N1C` [Example 1099] ({CH2CO}-[Ala(2-furyl)][NMeA]NPHL[Sar]WSW[NMeNle][NMeNle]RCG-NH2; thioether N-14), the results for the IC50 (on Human PD-L1/PD-1 (setting [2]); in test [1] (setting [4])) were above 30.5 nM and above 74.3 nM, respectively.

As to `CCCC[C@H]1C(=O)N(C)[C@@H](CCCC)C(=O)N[C@@H](CCCNC(=N)N)C(=O)N[C@H](C(=O)NCC(=O)NCC(N)=O)CSCC(=O)N[C@@H](Cc2ccc(O)cc2)C(=O)N(C)[C@@H](C)C(=O)N[C@@H](CC(N)=O)C(=O)N2CCC[C@H]2C(=O)N[C@@H](Cc2cnc[nH]2)C(=O)N[C@@H](CC(C)C)C(=O)N2C[C@H](O)C[C@H]2C(=O)N[C@@H](Cc2c[nH]c3ccccc23)C(=O)N[C@@H](CO)C(=O)N[C@@H](Cc2c[nH]c3ccccc23)C(=O)N1C` [Example 6017] ({CH2CO}-Y[NMeA]NPHL[Hyp]WSW[NMeNle][NMeNle]RCGG-NH2; thioether N-14), the IC50 on Human PD-L1/PD-1 (setting [2]) was 0.385 to 6.74 nM; in test [1] (setting [3]) it was 0.158 to 4.71 nM.

Regarding `CCCC[C@H]1C(=O)N(C)[C@@H](CCCC)C(=O)N[C@@H](CCCNC(=N)N)C(=O)N[C@H](C(=O)NCC(N)=O)CSCC(=O)N[C@@H](Cc2ccc(O)cc2)C(=O)N2CCC[C@H]2C(=O)N[C@@H](CC(N)=O)C(=O)N2CCC[C@H]2C(=O)N[C@@H](Cc2cnc[nH]2)C(=O)N[C@@H](CC(C)C)C(=O)N2CCC[C@H]2C(=O)N[C@@H](Cc2c[nH]c3ccccc23)C(=O)N[C@@H](CO)C(=O)N[C@@H](Cc2c[nH]c3ccccc23)C(=O)N1C` [Example 1136] ({CH2CO}-YPNPHLPWSW[NMeNle][NMeNle]RCG-NH2; thioether N-14), the IC50 at Human PD-L1/PD-1 (setting [2]) was 6.76 to 30.3 nM; in test [1] (setting [4]), 4.78 to 72.9 nM.

Turning to `CCCC[C@H]1C(=O)N(C)[C@@H](CCCC)C(=O)N[C@@H](CCCNC(=N)N)C(=O)N[C@H](C(=O)NCC(N)=O)CSCC(=O)N[C@@H](Cc2ccc(O)cc2)C(=O)N(C)[C@@H](C)C(=O)N[C@@H](CC(N)=O)C(=O)N2CCC[C@H]2C(=O)N[C@@H](Cc2cnc[nH]2)C(=O)N[C@@H](CC(C)C)C(=O)N2C[C@H](O)C[C@H]2C(=O)N[C@@H](Cc2c[nH]c3ccccc23)C(=O)N[C@@H](CCN)C(=O)N[C@@H](Cc2c[nH]c3ccccc23)C(=O)N1C` [Example 1134] ({CH2CO}-Y[NMeA]NPHL[Hyp]W[Dab]W[NMeNle][NMeNle]RCG-NH2; thioether N-14), the IC50 on Human PD-L1/PD-1 (setting [2]) lay within 6.76 to 30.3 nM; in test [1] (setting [4]) it was 0.158 to 4.71 nM.

As to `CCCC[C@H]1C(=O)N(C)CC(=O)N[C@@H](CC(=O)O)C(=O)N[C@@H](C(C)C)C(=O)N(C)[C@@H](Cc2cnc[nH]2)C(=O)N[C@@H](Cc2ccc(O)cc2)C(=O)N(C)CC(=O)N[C@@H](Cc2c[nH]c3ccccc23)C(=O)N[C@@H](Cc2ccc(O)cc2)C(=O)N[C@@H](CC(C)C)C(=O)N[C@H](C(=O)NCC(N)=O)CSCC(=O)N[C@@H](Cc2ccccc2)C(=O)N(C)[C@@H](Cc2ccccc2)C(=O)N1C` [Example 3057] (HELM PEPTIDE1{[O=C(C[*:3])[*:2]].F.[meF].[CCCC[C@@H](C(=O)[*:2])N(C)[*:1]].[Sar].D.V.[meH].Y.[Sar].W.Y.L.C.G.[am]}$PEPTIDE1,PEPTIDE1,1:R3-14:R3$$$V2.0), the IC50 is above 30.5 nM at Human PD-L1/PD-1 (setting [2]) and above 74.3 nM in test [1] (setting [4]).

Take `CCCC[C@H]1C(=O)N(C)[C@@H](CCCC)C(=O)N[C@@H](CCN)C(=O)N[C@H](C(=O)NCC(N)=O)CSCC(=O)N[C@@H](Cc2ccc(O)cc2)C(=O)N(C)[C@@H](C)C(=O)N[C@@H](CC(=O)O)C(=O)N2CCC[C@H]2C(=O)N[C@@H](Cc2cnc[nH]2)C(=O)N[C@@H](CCC(N)=O)C(=O)N2C[C@H](O)C[C@H]2C(=O)N[C@@H](Cc2c[nH]c3ccccc23)C(=O)N[C@@H](CO)C(=O)N[C@@H](Cc2c[nH]c3ccccc23)C(=O)N1C` [Example 5045] ({CH2CO}-Y[NMeA]DPHQ[Hyp]WSW[NMeNle][NMeNle][Dab]CG-NH2; thioether N-14): the IC50 was in the range of 0.385 to 6.74 nM on Human PD-L1/PD-1 (setting [2]) and 0.158 to 4.71 nM in test [1] (setting [3]).

For the compound `CCCC[C@H]1C(=O)N(C)[C@@H](CCCC)C(=O)N[C@@H](CCN)C(=O)N[C@H](C(=O)NCC(N)=O)CSCC(=O)N[C@@H](Cc2ccc(O)cc2)C(=O)N(C)[C@@H](C)C(=O)N[C@@H](CC(N)=O)C(=O)N2CCC[C@H]2C(=O)N[C@@H](Cc2cnc[nH]2)C(=O)N[C@@H](CCC(=O)O)C(=O)N2C[C@H](O)C[C@H]2C(=O)N[C@@H](Cc2csc3ccccc23)C(=O)N[C@@H](CO)C(=O)N[C@@H](Cc2c[nH]c3ccccc23)C(=O)N1C` [Example 5054] ({CH2CO}-Y[NMeA]NPHE[Hyp][Bta]SW[NMeNle][NMeNle][Dab]CG-NH2; thioether N-14), the results for the IC50 (on Human PD-L1/PD-1 (setting [2]); in test [1] (setting [3])) were above 30.5 nM and above 74.3 nM, respectively.

For `CCCC[C@H]1C(=O)N(C)[C@@H](CCCC)C(=O)N[C@@H](CC(C)C)C(=O)N[C@H](C(=O)NCC(N)=O)CSCC(=O)N[C@@H](Cc2ccc(O)cc2)C(=O)N(C)[C@@H](C)C(=O)N[C@@H](CC(=O)O)C(=O)N2CCC[C@H]2C(=O)N[C@@H](Cc2c[nH]cn2)C(=O)N[C@@H](CCCCN)C(=O)N2C[C@H](O)C[C@H]2C(=O)N[C@@H](Cc2c[nH]c3ccccc23)C(=O)N[C@@H](CCCCN)C(=O)N[C@@H](Cc2c[nH]c3ccccc23)C(=O)N1C` [Example 5095] ({CH2CO}-Y[NMeA]DPHK[Hyp]WKW[NMeNle][NMeNle]LCG-NH2; thioether N-14), the values for the IC50 (at Human PD-L1/PD-1 (setting [2]); in test [1] (setting [3])) were 0.385 to 6.74 nM and 0.158 to 4.71 nM, respectively.

On to `CCCC[C@H]1C(=O)N(C)[C@@H](CCCC)C(=O)N[C@@H](C)C(=O)N[C@H](C(=O)NCC(N)=O)CSCC(=O)N[C@@H](Cc2ccc(O)cc2)C(=O)N2CCC[C@H]2C(=O)N[C@@H](CC(=O)O)C(=O)N2CCC[C@H]2C(=O)N[C@@H](CN)C(=O)N[C@@H](CC(C)C)C(=O)N2C[C@H](O)C[C@H]2C(=O)N[C@@H](Cc2c[nH]c3ccccc23)C(=O)N[C@@H](CO)C(=O)N[C@@H](Cc2c[nH]c3ccccc23)C(=O)N1C` [Example 1152] ({CH2CO}-YPDP[Dap]L[Hyp]WSW[NMeNle][NMeNle]ACG-NH2; thioether N-14), for which the IC50 on Human PD-L1/PD-1 (setting [2]) is 6.76 to 30.3 nM; in test [1] (setting [4]), 4.78 to 72.9 nM.

Consider `CCCC[C@H]1C(=O)N(C)[C@@H](CCCC)C(=O)N[C@@H](CC(C)C)C(=O)N[C@H](C(=O)NCC(N)=O)CSCC(=O)N[C@@H](Cc2ccccc2)C(=O)N(C)[C@@H](C)C(=O)N[C@@H](CC(N)=O)C(=O)N2CCC[C@H]2C(=O)N[C@@H](Cc2cnc[nH]2)C(=O)N[C@@H](CC(C)C)C(=O)N(C)CC(=O)N[C@@H](Cc2c[nH]c3ccccc23)C(=O)N[C@@H](CO)C(=O)N[C@@H](Cc2c[nH]c3ccccc23)C(=O)N1C` [Example 5017] ({CH2CO}-F[NMeA]NPHL[Sar]WSW[NMeNle][NMeNle]LCG-NH2; thioether N-14), for which the IC50 on Human PD-L1/PD-1 (value given instead of cluster, read-out: HTRF IC50 value) was 11.3 nM; in test [1] (cell binding assay, cell line not given, value given instead of cluster, read-out: CBA IC50 value) it was 12.9 nM.

With `CCCC[C@H]1C(=O)N(C)[C@@H](CCCC)C(=O)N[C@@H](CCCNC(=N)N)C(=O)N[C@H](C(=O)NCC(N)=O)CSCC(=O)N[C@@H](Cc2ccc(O)cc2)C(=O)N(C)[C@@H](C)C(=O)N[C@@H](CC(N)=O)C(=O)N2CCC[C@H]2C(=O)N[C@@H](Cc2cnc[nH]2)C(=O)N[C@@H](CC(C)C)C(=O)N2CCC[C@H]2C(=O)N[C@@H](Cc2c[nH]c3ccccc23)C(=O)N[C@@H](CO)C(=O)N[C@@H](Cc2cn(C)c3ccccc23)C(=O)N1C` [Example 1130] ({CH2CO}-Y[NMeA]NPHLPWS[Trp(1-Me)][NMeNle][NMeNle]RCG-NH2; thioether N-14), the IC50 on Human PD-L1/PD-1 (setting [2]) was above 30.5 nM; in test [1] (setting [4]), 0.158 to 4.71 nM.

As to `CCCC[C@H]1C(=O)N(C)CC(=O)N[C@@H](CC(=O)O)C(=O)N[C@@H](C(C)C)C(=O)N(C)[C@@H](Cc2ccccc2)C(=O)N[C@@H](Cc2ccc(O)cc2)C(=O)N(C)CC(=O)N[C@@H](Cc2ccc(-c3ccccc3)cc2)C(=O)N[C@@H](Cc2ccc(O)cc2)C(=O)N[C@@H](CC(C)C)C(=O)N[C@H](C(=O)NCC(N)=O)CSCC(=O)N[C@@H](Cc2ccccc2)C(=O)N(C)[C@@H](Cc2ccccc2)C(=O)N1C` [Example 3545] ({CH2CO}-F[NMeF][NMeNle][Sar]DV[NMeF]Y[Sar][Bip]YLCG-NH2; thioether N-13), the IC50 on Human PD-L1/PD-1 (setting [2]) is above 30.5 nM; in test [1] (setting [3]) it was above 74.3 nM.

Source of the values: US9850283B2, “Macrocyclic inhibitors of the PD-1/PD-L1 and CD80(B7-1)/PD-L1 protein/protein interactions” (BRISTOL-MYERS SQUIBB COMPANY, priority 2013, dated 2017).
